The source of these data is paper PMC13039201 (Scientific Reports, 2026).

Where two headings read alike, the source gives them in different places.

The subject of data set [1] is anti-HA antibody. Nature of the data set: SPR injection on the bare anti-HA sensor chip without any immobilized HA. The data set is classed as binding, rabbits.
Data set [2] concerns the target HA captured from plasma (ACLF patients, CTRL) (Homo sapiens, UniProt P02768). The data set is classed as binding. The conditions noted are these: ACLF n = 6 vs CTRL n = 6, Student's t-test on KD values.
In data set [3] the target is Human serum albumin (HA), commercial HA (Homo sapiens, UniProt P02768).
Sequence of Human serum albumin (HA), commercial HA (P02768 25-609): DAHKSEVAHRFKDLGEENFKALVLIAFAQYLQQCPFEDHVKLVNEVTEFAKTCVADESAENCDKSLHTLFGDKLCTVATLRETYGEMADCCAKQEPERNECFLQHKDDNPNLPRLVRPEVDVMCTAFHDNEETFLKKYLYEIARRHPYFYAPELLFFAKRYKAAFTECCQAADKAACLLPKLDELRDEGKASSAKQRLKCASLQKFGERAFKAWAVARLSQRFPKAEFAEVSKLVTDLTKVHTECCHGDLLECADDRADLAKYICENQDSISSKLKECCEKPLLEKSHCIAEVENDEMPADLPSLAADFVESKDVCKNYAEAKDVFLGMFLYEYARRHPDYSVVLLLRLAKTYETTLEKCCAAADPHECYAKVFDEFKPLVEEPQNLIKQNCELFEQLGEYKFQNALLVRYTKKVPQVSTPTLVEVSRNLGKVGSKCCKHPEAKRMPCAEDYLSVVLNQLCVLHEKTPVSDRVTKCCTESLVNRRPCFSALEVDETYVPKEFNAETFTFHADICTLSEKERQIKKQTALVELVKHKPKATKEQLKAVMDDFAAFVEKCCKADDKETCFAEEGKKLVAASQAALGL
The target in data set [4] is HA. The conditions noted are these: read-out: KD reported in the literature; cited from earlier work.
In data set [5] the target is HA captured from plasma (T2DM-DKD, T2DM+DKD) (Homo sapiens, UniProt P02768). The data set is classed as binding. The conditions noted are these: n = 10 each, KD values.
Sequence of HA captured from plasma (T2DM-DKD, T2DM+DKD) (P02768 25-609): as above

Sequence of HA captured from plasma (ACLF patients, CTRL) (P02768 25-609): as above

With `C=CC1=C(C)/C(=C/C2=NC(=C\c3[nH]c(/C=C4\NC(=O)C(C)=C4C=C)c(C)c3CCC(=O)O)/C(CCC(=O)O)=C2C)NC1=O` [BVD, biliverdin], the “interactions with the anti-HA antibody” value in data set [1] is given as “significant interactions”. The “affinity of HA from ACLF patients compared with HA from CTRL subjects” value (“affinity … compared with HA from CTRL subjects” for short) in data set [2] was “no significant differences”. In data set [3], this compound registered a Kd of 13 ± 3 µM.

For the compound `CN(C)c1cccc2c(S(=O)(=O)N[C@@H](Cc3ccccc3)C(=O)O)cccc12` [DPA, dansyl-L-phenylalanine], in data set [2], the “affinity … compared with HA from CTRL subjects” value is listed as “no significant differences”. Besides, the Kd in data set [4] is 6 µM; in data set [3] (commercial HA captured on chip, steady state 1:1 model, 25 °C, validation), 1.7 ± 0.3 µM.

`CCCCC1C(=O)N(c2ccccc2)N(c2ccccc2)C1=O` [PBZ, phenylbutazone]: the Kd in data set [4] was 0.12 to 3.3 µM.

As for `COc1ccc2c3c1O[C@H]1C[C@@H](O)C=C[C@@]31CCN(C)C2` [galantamine], the “interaction with HA (negative control)” value in data set [3] (0.370-30.0 µM, 10 µL/min, 60 s) is reported as “no interaction”.

Turning to teicoplanin, the “affinity … compared with HA from CTRL subjects” value in data set [2] is reported as “reduced its binding affinity”. In addition, the “binding capacity of HA in T2DM + DKD patients compared with T2DM-DKD” value in data set [5] is listed as “did not significantly affect”.

Broadly, the Kd is the equilibrium constant for the complex coming apart.
